Source: PubChem BioAssay (NCI)
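Interpolation was linear, between the two tested concentrations surrounding the appropriate level; five concentrations were tested over 48 hours in 96-well plates. Abbreviation: GI50, concentration required for 50% inhibition of growth. TGI: concentration producing complete growth inhibition.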

What was measured:
Assay in all cases: NCI tumour cell line growth inhibition, 48 h
HL-60(TB) leukemia = tested on: HL-60(TB) leukemia
BT-549 breast = tested on: BT-549 breast
SK-MEL-5 melanoma = tested on: SK-MEL-5 melanoma
SK-MEL-28 melanoma = tested on: SK-MEL-28 melanoma
SF-268 CNS = tested on: SF-268 CNS
SK-OV-3 ovarian = tested on: SK-OV-3 ovarian
MALME-3M melanoma = tested on: MALME-3M melanoma
HCC-2998 colon = tested on: HCC-2998 colon
SF-539 CNS = tested on: SF-539 CNS
RXF 393 renal = tested on: RXF 393 renal
NCI-H460 lung = tested on: NCI-H460 lung
OVCAR-8 ovarian = tested on: OVCAR-8 ovarian
A549 NSCLC = tested on: A549 NSCLC
PC-3 prostate = tested on: PC-3 prostate
DU-145 prostate = tested on: DU-145 prostate
RPMI-8226 leukemia = tested on: RPMI-8226 leukemia
LOX IMVI melanoma = tested on: LOX IMVI melanoma
CAKI-1 renal = tested on: CAKI-1 renal
HT29 colon = tested on: HT29 colon
U251 CNS = tested on: U251 CNS
HCT-15 colon = tested on: HCT-15 colon
MDA-MB-231 breast = tested on: MDA-MB-231 breast
HCT-116 colon = tested on: HCT-116 colon
MCF7 breast = tested on: MCF7 breast
MDA-MB-468 breast = tested on: MDA-MB-468 breast
UO-31 renal = tested on: UO-31 renal
HOP-92 NSCLC = tested on: HOP-92 NSCLC
786-0 renal = tested on: 786-0 renal
OVCAR-5 ovarian = tested on: OVCAR-5 ovarian
NCI-H226 lung = tested on: NCI-H226 lung
K-562 leukemia = tested on: K-562 leukemia
UACC-62 melanoma = tested on: UACC-62 melanoma
T-47D breast = tested on: T-47D breast
OVCAR-3 ovarian = tested on: OVCAR-3 ovarian
SNB-75 CNS = tested on: SNB-75 CNS
MDA-MB-435 = tested on: MDA-MB-435
NCI/ADR-RES ovarian = tested on: NCI/ADR-RES ovarian
SNB-19 CNS = tested on: SNB-19 CNS
SN12C renal = tested on: SN12C renal
NCI-H23 lung = tested on: NCI-H23 lung
TK-10 renal = tested on: TK-10 renal
SK-MEL-2 melanoma = tested on: SK-MEL-2 melanoma
A498 renal = tested on: A498 renal
EKVX NSCLC = tested on: EKVX NSCLC
COLO 205 colon = tested on: COLO 205 colon
HOP-62 NSCLC = tested on: HOP-62 NSCLC
SW-620 colon = tested on: SW-620 colon
ACHN renal = tested on: ACHN renal
IGROV1 ovarian = tested on: IGROV1 ovarian
SF-295 CNS = tested on: SF-295 CNS
KM12 colon = tested on: KM12 colon
HS 578T breast = tested on: HS 578T breast
CCRF-CEM leukemia = tested on: CCRF-CEM leukemia
SR leukemia = tested on: SR leukemia
M14 melanoma = tested on: M14 melanoma
OVCAR-4 ovarian = tested on: OVCAR-4 ovarian
MOLT-4 leukemia = tested on: MOLT-4 leukemia
UACC-257 melanoma = tested on: UACC-257 melanoma
NCI-H522 lung = tested on: NCI-H522 lung

SMILES: COc1ccc(CCC2c3c(cc4c(c3OC)OCO4)CCN2C)cc1 (stereo not drawn)
- GI50 (HL-60(TB) leukemia): 3.01 µM
- TGI (HL-60(TB) leukemia): 18 µM
- GI50 (BT-549 breast): 7.68 µM
- TGI (BT-549 breast): 20.1 µM
- GI50 (SK-MEL-5 melanoma): 10.4 µM
- TGI (SK-MEL-5 melanoma): 22.2 µM
- GI50 (SK-MEL-28 melanoma): 10.2 µM
- TGI (SK-MEL-28 melanoma): 22.5 µM
- GI50 (SF-268 CNS): 14.3 µM
- TGI (SF-268 CNS): > 100 µM
- GI50 (SK-OV-3 ovarian): 17.3 µM
- TGI (SK-OV-3 ovarian): 43.3 µM
- GI50 (MALME-3M melanoma): 14.2 µM
- TGI (MALME-3M melanoma): 27.5 µM
- GI50 (HCC-2998 colon): 10.7 µM
- TGI (HCC-2998 colon): 25.7 µM
- GI50 (SF-539 CNS): 4.91 µM
- TGI (SF-539 CNS): 16.8 µM
- GI50 (RXF 393 renal): 6.99 µM
- TGI (RXF 393 renal): 30.6 µM
- GI50 (NCI-H460 lung): 4.76 µM
- TGI (NCI-H460 lung): 19.1 µM
- GI50 (OVCAR-8 ovarian): 13.1 µM
- TGI (OVCAR-8 ovarian): 30.5 µM
- GI50 (A549 NSCLC): 17 µM
- TGI (A549 NSCLC): > 100 µM
- GI50 (PC-3 prostate): 9.52 µM
- TGI (PC-3 prostate): 35.1 µM
- GI50 (DU-145 prostate): 20.1 µM
- TGI (DU-145 prostate): 86.2 µM
- GI50 (RPMI-8226 leukemia): 4.05 µM
- TGI (RPMI-8226 leukemia): 27.4 µM
- GI50 (LOX IMVI melanoma): 3.14 µM
- TGI (LOX IMVI melanoma): 12.6 µM
- GI50 (CAKI-1 renal): 9.84 µM
- TGI (CAKI-1 renal): 38.8 µM
- GI50 (HT29 colon): 3.63 µM
- TGI (HT29 colon): 20.9 µM
- GI50 (U251 CNS): 13.6 µM
- TGI (U251 CNS): 46.5 µM
- GI50 (HCT-15 colon): 9.8 µM
- TGI (HCT-15 colon): 34.8 µM
- GI50 (MDA-MB-231 breast): 9.13 µM
- TGI (MDA-MB-231 breast): 22.6 µM
- GI50 (HCT-116 colon): 3.35 µM
- TGI (HCT-116 colon): 13.8 µM
- GI50 (MCF7 breast): 10.4 µM
- TGI (MCF7 breast): 24.3 µM
- GI50 (MDA-MB-468 breast): 6.81 µM
- TGI (MDA-MB-468 breast): 21.6 µM
- GI50 (UO-31 renal): 8.73 µM
- TGI (UO-31 renal): 54.1 µM
- GI50 (HOP-92 NSCLC): 5.16 µM
- TGI (HOP-92 NSCLC): 23.4 µM
- GI50 (786-0 renal): 9.15 µM
- TGI (786-0 renal): 24 µM
- GI50 (OVCAR-5 ovarian): 5.98 µM
- TGI (OVCAR-5 ovarian): 28.8 µM
- GI50 (NCI-H226 lung): 7.04 µM
- TGI (NCI-H226 lung): 25.6 µM
- GI50 (K-562 leukemia): 3.94 µM
- TGI (K-562 leukemia): 24.6 µM
- GI50 (UACC-62 melanoma): 10.6 µM
- TGI (UACC-62 melanoma): 23.2 µM
- GI50 (T-47D breast): 6.92 µM
- TGI (T-47D breast): 29.6 µM
- GI50 (OVCAR-3 ovarian): 10.9 µM
- TGI (OVCAR-3 ovarian): 29.3 µM
- GI50 (SNB-75 CNS): 13.5 µM
- TGI (SNB-75 CNS): 70.5 µM
- GI50 (MDA-MB-435): 3.78 µM
- TGI (MDA-MB-435): 17.1 µM
- GI50 (NCI/ADR-RES ovarian): 9.23 µM
- TGI (NCI/ADR-RES ovarian): 26.2 µM
- GI50 (SNB-19 CNS): 15 µM
- TGI (SNB-19 CNS): > 100 µM
- GI50 (SN12C renal): 7.05 µM
- TGI (SN12C renal): 37.4 µM
- GI50 (NCI-H23 lung): 6.56 µM
- TGI (NCI-H23 lung): 31.7 µM
- GI50 (TK-10 renal): 10.6 µM
- TGI (TK-10 renal): 31.8 µM
- GI50 (SK-MEL-2 melanoma): 14.6 µM
- TGI (SK-MEL-2 melanoma): 36.7 µM
- GI50 (A498 renal): 18 µM
- TGI (A498 renal): 64.6 µM
- GI50 (EKVX NSCLC): 16.1 µM
- TGI (EKVX NSCLC): 67.7 µM
- GI50 (COLO 205 colon): 5.99 µM
- TGI (COLO 205 colon): 21 µM
- GI50 (HOP-62 NSCLC): 7.41 µM
- TGI (HOP-62 NSCLC): 46.3 µM
- GI50 (SW-620 colon): 3.93 µM
- TGI (SW-620 colon): 16.8 µM
- GI50 (ACHN renal): 8.95 µM
- TGI (ACHN renal): 45 µM
- GI50 (IGROV1 ovarian): 5.72 µM
- TGI (IGROV1 ovarian): 22.1 µM
- GI50 (SF-295 CNS): 3.5 µM
- TGI (SF-295 CNS): 17.2 µM
- GI50 (KM12 colon): 12.6 µM
- TGI (KM12 colon): 33.2 µM
- GI50 (HS 578T breast): 10.4 µM
- TGI (HS 578T breast): 41.8 µM
- GI50 (CCRF-CEM leukemia): 11.2 µM
- TGI (CCRF-CEM leukemia): 46.7 µM
- GI50 (SR leukemia): 3.94 µM
- TGI (SR leukemia): 24 µM
- GI50 (M14 melanoma): 7.17 µM
- TGI (M14 melanoma): 23.2 µM
- GI50 (OVCAR-4 ovarian): 17.2 µM
- TGI (OVCAR-4 ovarian): 99.2 µM
- GI50 (MOLT-4 leukemia): 6.39 µM
- TGI (MOLT-4 leukemia): 32.8 µM
- GI50 (UACC-257 melanoma): 13.4 µM
- TGI (UACC-257 melanoma): 28.2 µM
- GI50 (NCI-H522 lung): 12.1 µM
- TGI (NCI-H522 lung): 27.1 µM
